This note sets out measurements from publication PMC10434272, “Overexpression of Eimeria tenella Rhoptry Kinase 2 Induces Early Production of Schizonts” (Microbiology Spectrum, 2023).

Test [1] addresses T1, EtROP2 (rhoptry kinase 2) (Eimeria tenella, UniProt U6KH66). The experiment in a line: ADP-Glo kinase assay with p120-TLTR peptide substrate, […] ATP. Set-up: gene ETH_00027700; EtROP2-GST, wild type, full-length, from Met1 to Glu671, produced in Sf9 cells. It is filed as biochemical.
The target of test [2] is T1, EtROP2 (rhoptry kinase 2). Set-up: gene ETH_00027700.

T1 sequence (U6KH66 entry or part of it): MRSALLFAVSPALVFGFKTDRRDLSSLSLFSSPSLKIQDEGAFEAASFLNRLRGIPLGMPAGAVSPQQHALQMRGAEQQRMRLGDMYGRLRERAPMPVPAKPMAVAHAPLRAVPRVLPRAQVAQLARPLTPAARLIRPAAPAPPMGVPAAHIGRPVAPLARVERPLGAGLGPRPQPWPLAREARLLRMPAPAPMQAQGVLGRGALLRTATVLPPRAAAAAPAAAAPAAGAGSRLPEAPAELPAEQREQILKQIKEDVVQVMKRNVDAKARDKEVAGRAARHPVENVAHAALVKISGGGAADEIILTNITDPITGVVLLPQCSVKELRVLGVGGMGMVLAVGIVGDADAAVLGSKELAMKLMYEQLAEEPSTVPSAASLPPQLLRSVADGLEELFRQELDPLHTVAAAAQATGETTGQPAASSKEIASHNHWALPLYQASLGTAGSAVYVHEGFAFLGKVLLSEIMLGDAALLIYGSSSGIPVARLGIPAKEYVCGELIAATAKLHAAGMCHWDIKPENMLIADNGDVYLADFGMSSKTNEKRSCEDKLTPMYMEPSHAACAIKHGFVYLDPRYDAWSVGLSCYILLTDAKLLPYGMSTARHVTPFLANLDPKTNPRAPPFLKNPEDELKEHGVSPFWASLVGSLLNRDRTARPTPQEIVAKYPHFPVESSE

As for `CN[C@@H]1C[C@H]2O[C@@](C)([C@@H]1OC)n1c3ccccc3c3c4c(c5c6ccccc6n2c5c31)C(=O)NC4` [STS, staurosporine], half-maximal inhibition in test [1] (IC50) required 291 nM. That is a sub-micromolar value. Take `Nc1ncnc2c1ncn2[C@@H]1O[C@H](COP(=O)(O)OP(=O)(O)OP(=O)(O)O)[C@@H](O)[C@H]1O` [ATP]: in test [2], the Michaelis constant (Km) (commonly the concentration of substrate that gives half-maximal velocity) was about 7.52 µM.
